# Tested on: MRSA, VISA, VRSA and E. coli
# Assay: MIC, agent alone, panel statement
# Format: cell-based
# Conditions: CA-MRSA and HA-MRSA (checkerboard strains of Table 11)
# Method: VISA (strains 92, 95 and 96), VRSA (strains 105 and 106) and E. coli (strain 69717) isolates were also tested. One MSSA was used as a control. All MICs were assessed using CLSI guidelines. Also assessed was the activity of cefazolin, ceftriazone, meropenem, and a piperacillin/tazobactam combination antibiotic. Minimum inhibitory concentration (MIC) is the lowest concentration of an antimicrobial that will inhibit the visible growth of a microorganism after incubation.
# Antimicrobial Susceptibility Testing: A custom designed panel of antimicrobials was created. The panel included: PEP35, penicillin, piperacillin/tazobactam, cefazolin, ceftriaxone, meropenem, clarithromycin, clindamycin, gentamicin, amikacin, vancomycin, ciprofloxacin, levofloxacin, moxifloxacin, linezolid, trimethoprim/sulfamethoxazole and doxycycline. These agents were obtained as laboratory grade powders from their respective manufacturers. Stock solutions were prepared and dilutions made as described by the Clinical Laboratory Standards Institute (2005 CLSI). Following two subcultures from frozen stock the MICs of the antimicrobial agents for the isolates were determined by the CLSI 2005 approved broth macrodilution method. Briefly, test tubes containing doubling antibiotic dilutions (2 ml per tube) of cation adjusted Mueller-Hinton broth (eg. for Enterobacteriaceae) with or without lysed horse blood (2-5% V/V) [eg. for S. pneumoniae] were inoculated to achieve a final concentration of approximately 5×10^5 CFU/ml and incubated in ambient air for 24 hours prior to reading. Colony counts were performed periodically to confirm inocula. Quality control was performed every two weeks using a variety of ATCC QC organisms including; S. aureus 29213, E. faecalis 29212, E. coli 25922 and P. aeruginosa 27853. For all antimicrobials as well as PEP35, CLSI criteria were used.
sequence,measurement,value
LKQKIKHVVKLKVVVKLRSQLVKRKQN (listed as Mus sp.) [PEP35],"MIC alone, range",512 to 1024 µg/mL

# Source: patent US9751919B2, “Antimicrobial compositions comprising a hyaluronic acid binding peptide and a β-lactam antibiotic” (priority 2012, dated 2017)
